# Results from patent publication US8399511B2, “Two types of crystalline of pinocembrin, their preparation and their use for manufacture of pharmaceutical compositions” (CSPC Zhongqi Pharmaceutical Technology (Shijiazhuang) Co., …, priority 2008, dated 2013).
# Assay: In vivo absorption and blood concentration after oral administration of pinocembrin crystalline forms
# Design: species or system SD rats
# Settings: for Blood concentration of pinocembrin: fasted SD rats, arterial blood, HPLC, group average, 50 mg/kg
# Protocol: • 1. Monocrystal X-ray analysis • Instrument: MAC DIP-2030K area detector • Test condition: tube voltage: 50 KV, tube flow: 80 mA, ω scanning, MoKα, 2θ≦50.0°, scan range: 0-180°, pivot angle: 6°, step: 6°, scan rate: 1.8°/min. • 2. Powder X-ray analysis • Instrument: Rigaku D/max 2550 powder X-ray diffractometer • Test conditions: voltage: 40 KV, current: 150 mA, scan rate: 8°/min. • 3. DSC analysis • Instrument type: Seiko Instruments Inc. Differential Scanning Calorimeter • Test conditions: purge gas: N2, heating rate: 10° C. /min. • Temperature range: 25-250° C. • 4. IR absorbance spectra • Instrument Nicolet FT-IR spectrometer: IMPACT 400 • Test conditions: KBr pellet • 5. HPCL analysis • Instrument: SHIMADZU LC-10Avp high performance liquid chromatography, SPD-M10Avp diode array detector, CLASS-VP chromatography data system; column: Alltch C18(5μ, 150×4.6 mm); test conditions: column temperature: room temperature; wavelength: 290 nm; mobile phase: methanol/phosphate saline pH 3.0 (64/36); flow rate : 1.0 mL/min; injection volume: 20 μL; injection concentration: 500.0 μg/mL Preparation 1: Synthesis of Pinocembrin Sample
# 18 of SD rats, female and male each half, with body weight of 230˜250 g, were randomized into 3 groups, with 6 rats each group and female half. After 10 hours of fasting but free water intake, the rats were administrated with pinocembrin solid active ingredient powder of α, β or 1:1 (α+β) mixed crystalline forms, at a dose of 50 mg/kg to stomach. Then the arterial blood samples at different times were taken and the contents of pinocembrin were determined.
# [1] = 10 min after oral (to stomach) 50 mg/kg solid powder
# [2] = 20 min after oral (to stomach) 50 mg/kg solid powder
# [3] = 30 min after oral (to stomach) 50 mg/kg solid powder
# [4] = 40 min after oral (to stomach) 50 mg/kg solid powder
SMILES,"Blood concentration of pinocembrin (10 min after oral (to stomach) 50 mg/kg solid powder, listed as β crystalline from) [peak area value]","Blood concentration of pinocembrin (20 min after oral (to stomach) 50 mg/kg solid powder, listed as β crystalline from) [peak area value]","Blood concentration of pinocembrin (30 min after oral (to stomach) 50 mg/kg solid powder, listed as β crystalline from) [peak area value]","Blood concentration of pinocembrin (40 min after oral (to stomach) 50 mg/kg solid powder, listed as β crystalline from) [peak area value]","Uptake rate by organism relative to α crystalline form (rat, in vivo) [times]",Blood concentration of pinocembrin [1] [peak area value],Blood concentration of pinocembrin [2] [peak area value],Blood concentration of pinocembrin [3] [peak area value],Blood concentration of pinocembrin [4] [peak area value],"Blood concentration compared with β crystalline form (same dosage (50 mg/kg) by oral administration, rats)"
"O=C1C[C@@H](c2ccccc2)Oc2cc(O)cc(O)c21 (stereo in doubt) [β crystalline form, 5,7-dihydroxy-2-phenyl-4-chromanone]",13.2,48.6,14.6,14.2,≥ 2,,,,,
"O=C1C[C@@H](c2ccccc2)Oc2cc(O)cc(O)c21 (stereo in doubt) [1:1 (α + β) crystalline forms, 5,7-dihydroxy-2-phenyl-4-chromanone]",,,,,,8.5,15.6,7.9,7.1,
"O=C1C[C@@H](c2ccccc2)Oc2cc(O)cc(O)c21 (stereo in doubt) [α crystalline form, 5,7-dihydroxy-2-phenyl-4-chromanone]",,,,,,3.8,9.7,4.4,3.5,obviously lower
